Results: patent US20200299329A1, “SYNTHETIC PEPTIDES, PHARMACEUTICAL COMPOSITIONS COMPRISING THE SAME, AND USES THEREOF IN TREATING THROMBOEMBOLISM-RELATED DISEASES” (Academia Sinica, priority 2019, published 2020)

Columns and labels:
human thrombus = assay: Screening of thrombus-binding activity of phages by ELISA; conditions: for dose-dependent thrombus-specific binding by ELISA: BSA binding as negative control, FIG. 1C/1D; for binding affinity to human thrombus (ELISA, absorption at 450 nm): screening of 72 phage clones from the fifth round of biopanning, FIG. 1B
Procedure: A human thrombus was isolated and collected from a cadaver about 20 years ago in a course of fresh cadaver dissection and partial thrombus was grounded to powder and then incubated with 2×10^11 phages in 1% BSA in PBS at 4° C. for 1 hour. After washing with PBS, the bound phages were eluted from the thrombus tissue and amplified using E. coli for subsequent rounds of selection. The eluted and amplified phages were titrated on lysogeny broth (LB) medium plates containing isopropyl β-D-1-thiogalactopyranoside (IPTG) and X-Gal (5-bromo-4-chloro-3-indolyl-D-galactoside). The biopanning steps described above were repeated five times before phage clones were randomly selected for thrombus ELISA screening.
The grinded human thrombus tissue or BSA in coating buffer was used to coat 96-well ELISA plates overnight. After blocking and washing, the selected phage clones were added and incubated for 1 hour at room temperature (RT). After washing with PBS, each well was probed with horseradish peroxidase (HRP)-conjugated mouse anti-M13 antibodies (1:2000 dilution) for 1 hour at RT. After repeating the wash step, the plates were developed with ELISA substrate solution. The reaction was terminated with 3N hydrochloric acid, and the absorbance of the colorimetric substrate was analyzed using a microplate reader at 450 nm.

induced thrombus = assay: In vivo infrared fluorescence imaging of HILYTE FLUOR 750-conjugated protein at the thrombus; set-up: species or system mice; conditions: FIG. 5B
Procedure: Fifty micrograms of tPA or targeting peptide-tPA fusion and 4 nM HILYTE FLUOR™ 750 were mixed for 45 minutes at RT to promote conjugation. The solution was dialyzed with a 3.5-kDa-cut-off membrane overnight at 4° C. Time-course fluorescence measurements were made in mice with thrombi after intravenous injection of HILYTE FLUOR™ 750-labeled tPA or targeting peptide-tPA fusion protein. Fluorescence images were captured using an imaging system. Accumulation of HILYTE FLUOR™ 750 in the thrombus was quantified by subtracting background florescence intensity.
Fifty micrograms of thrombus affinity peptide-tPA was mixed with 4 nM HILYTE FLUOR™ 750 and incubated for 45 minutes at RT in the dark to promote the conjugation. Dialysis was performed with a 3.5-kDa-cut-off membrane overnight at 4° C. to remove excess dye. A time-course of infrared fluorescence images were acquired after intravenous injection of HILYTE FLUOR™ 750-conjugated fusion protein or tPA. Infrared fluorescence images of HILYTE FLUOR™ 750-conjugated protein were captured in living using an imaging system. Accumulation of HILYTE FLUOR™ 750 fluorescence signal in the induced thrombus was quantified and analyzed by software.

Substance | dose-dependent thrombus-specific binding by ELISA (human thrombus) | binding affinity to human thrombus (ELISA, absorption at 450 nm) (human thrombus) | time after injection at which accumulation at the induced thrombus was seen (induced thrombus; dye-conjugated protein, i.v., mice with induced thrombus) | decrease of fluorescence intensity at the induced thrombus (induced thrombus; in 1 hour after i.v. injection)
FQNEWFHNFLHD [PC30] | best thrombus-specific binding | relatively high binding affinity |  | 
LQKNPFDLVQIL [PC66] | best thrombus-specific binding | relatively high binding affinity |  | 
TEANLSSWVFAR [PC39] | best thrombus-specific binding | relatively high binding affinity |  | 
tPA: human recombinant tissue plasminogen activator without thrombus binding peptide, used as control |  |  | ≤ 5 min | 50%
